PMC12564302, “Discovery of N-Hydroxypyridinedione-Based Inhibitors of HBV RNase H: Design, Synthesis, and Extended SAR Studies” (International Journal of Molecular Sciences, 2025)
Values after ≈ are worked out from the molar mass of the structure shown. “Also recorded” adds a separate entry of the source. Read-outs that look alike come from different tables or passages of the source.

Tests used:
[1] = test system: HBV replication in HepDES19 cells; assay: qPCR HBV replication inhibition assay; format: cell-based, HBV genotype D
Method: (§1) HepDES19 cells are a HepG2 cell-line derivative that has been stably transfected with an HBV genotype D genome containing a tetracycline repressible promoter. HepDES19 cells were maintained on collagen-coated plates in Dulbecco’s modified Eagle’s medium (DMEM/F12) (Cytiva Life Sciences, Marlborough, MA, USA) supplemented with 10% fetal bovine serum (FBS), streptomycin (100 µg/mL), and penicillin (100 IU/mL), and incubated at 37 °C with 5% CO2 and saturating humidity. Cells were cultured with 1 µg/mL tetracycline to inhibit the expression of the stably integrated HBV genome, and HBV replication was activated upon removal of tetracycline from the culture medium.
HBV replication inhibition in HepDES19 cells was assessed using a strand-preferential quantitative PCR assay as previously described. HepDES19 cells were seeded in 96 well plates at 4 × 10^4 cells/well for 48 h followed by the addition of serial diluted compound with a final concentration of 1% DMSO for 72 h, after which cells were lysed, and qPCR was performed as described in Li et al.. Effective concentration 50% (EC50) values were calculated from data for the (+) polarity DNA strand data using GraphPad Prism version 10’s four-parameter log (inhibitor) versus response algorithm, with the bottom value set to zero. Three or more replicate assays were performed on different days.

MTS cytotoxicity assay = format: cell-based; conditions: human, HepDES19 cells, pH 7.4
Method: as §1
Cell viability was assessed using the CellTiter 96^TM Aqueous Non-Radioactive Cell Proliferation assay (MTS) (Promega, Madison, WI, USA) as described previously. HepDES19 cells were seeded in 96 well plates at 1 × 10^4 cells/well for 48 h. Cells were then incubated with serial diluted compound, with a final concentration of 1% DMSO, for 72 h. Following compound incubation, background absorbance values were subtracted, and the data were converted into percent cell viability. The cytotoxic concentration 50% (CC50) values were calculated using GraphPad Prism’s four-parameter log (inhibitor) versus response algorithm, with the bottom value set to zero. Three or more replicate assays were performed on different days.

[2] = Parallel artificial membrane permeability assay; format: in vitro ADME; conditions: PAMPA, pH 7.4, PAMPA
Method: The evaluation of apparent passive permeability (Papp) at pH 7.4 was performed using a donor/acceptor cassette (Innovative Laboratory Products, Phoenix, AZ, USA and Sigma Aldrich, Burlington, MA, USA), which simulates the apical and basolateral sides of the small intestine epithelium, as previously described. An artificial membrane made of 1% w/v lecithin/dodecane was applied to the poly (vinylidene fluoride) (PVDF) membrane filter and allowed to dry. Following drying, compounds (200 µM) were diluted in buffer at pH 7.4 and added to the donor side of the cassette. The same pH buffer was added on the acceptor side of the cassette, after which it was assembled and incubated at room temperature with shaking at 250 rpm for 2 h, before reading the absorbance of 100 µL from the acceptor well on a plate reader between 230 and 700 nm. The Papp (cm/s) values for compounds were determined by normalizing to the compound absorbance at equilibrium using the peak absorbance point for each compound, buffer volume, incubation time, and membrane porosity. Two or more replicate assays were conducted on different days.

Solubility limit assay = format: physicochemical; conditions: DMEM-F12 without phenol red with 10% FBS, pH 7.4, plasma or biological fluid, kinetic from dmso stock
Method: Solubility limits of compounds were tested as previously reported in DMEM-F12 without phenol red (Gibco, Grand Island, NY, USA) but with the media supplemented with 10% FBS (pH 7.4) to mimic cell culture experiments. In a 384-well optically clear plate, compounds were serially diluted in pH 7.4 buffer (upper limit 200 µM, DMSO 1%) then read at 620 nm. Solubility limits were determined by plotting compound concentration (µM) against optical density (OD) and identifying an inflexion point. The inflexion point is defined by a substantial increase in OD brought on by increasing turbidity, and the compound concentration at this point is known as the solubility limit. Each compound had at least two replicate assays performed on different days.

[3] = Hepatitis B virus, HepDES19, 72 h, pH 7.4, HepDES19 cells, 72 h, (+) polarity DNA strand, pH 7.4, read-out: EC50
[4] = pH 7.4, 200 µM, 2 h, read-out: Papp
[5] = pH 7.4, read-out: Papp Interpretation
[6] = pH 7.4, DMEM-F12 with 10% FBS, 1% DMSO, upper limit 200 µM, read-out: Solubility Limit
[7] = pH 7.4, read-out: Solubility Limit Interpretation
[8] = Hepatitis B virus, HepDES19, 72 h, experimental potencies of the E/Z mixture, read-out: EC50 mix

## 2-amino-4-(2-bromophenoxy)-6-iminopyrimidin-1(6H)-ol [Compound 44]
[1]; HepDES19 cells
  anti-HBV activity (in words): inactive against HBV
[1]; HepDES19 cells, 72 h, (+) polarity DNA strand, pH 7.4, read-out: EC50
  EC50: > 100 µM

## CC(=Nc1ccccc1F)c1c(C)cc(=O)n(O)c1O [Compound 21, 5-(1-((2-fluorophenyl)imino)ethyl)-1,6-dihydroxy-4-methylpyridin-2(1H)-one]
MTS cytotoxicity assay
  CC50 at 72 h: 86.3 ± 10.2 µM
[1]; [3]
  EC50: 2.2 ± 0.5 µM
[2]; [4]
  Papp at 2 h, 200 µM: 5.72 ×10⁻⁶ cm/s
[2]; [5]
  Papp at 2 h, 200 µM: > 1 ×10⁻⁶ cm/s
Solubility limit assay; [6]
  solubility: > 200 µM
Solubility limit assay; [7]
  solubility: > 100 µM

## CC(=Nc1ccccc1Cl)c1c(C)cc(=O)n(O)c1O [Compound 23, 5-(1-((2-chlorophenyl)imino)ethyl)-1,6-dihydroxy-4-methylpyridin-2(1H)-one]
MTS cytotoxicity assay
  CC50 at 72 h: 76.8 ± 5.9 µM
[1]; [3]
  EC50: 2.42 ± 1 µM
[2]; [4]
  Papp at 2 h, 200 µM: 2.83 ×10⁻⁶ cm/s
[2]; [5]
  Papp at 2 h, 200 µM: > 1 ×10⁻⁶ cm/s
Solubility limit assay; [6]
  solubility: > 200 µM
Solubility limit assay; [7]
  solubility: > 100 µM

## CC(=Nc1ccc(Cl)c(Cl)c1)c1c(C)cc(=O)n(O)c1O [Compound 24, 5-(1-((3,4-dichlorophenyl)imino)ethyl)-1,6-dihydroxy-4-methylpyridin-2(1H)-one]
MTS cytotoxicity assay
  CC50 at 72 h: 69 µM
[1]; [3]
  EC50: 2.17 ± 0.8 µM
[2]; [4]
  Papp at 2 h, 200 µM: 2.24 ×10⁻⁶ cm/s
[2]; [5]
  Papp at 2 h, 200 µM: > 1 ×10⁻⁶ cm/s
Solubility limit assay; [6]
  solubility: > 200 µM
Solubility limit assay; [7]
  solubility: > 100 µM

## CC(=Nc1ccccc1Br)c1c(C)cc(=O)n(O)c1O [Compound 25, 5-(1-((2-bromophenyl)imino)ethyl)-1,6-dihydroxy-4-methylpyridin-2(1H)-one]
MTS cytotoxicity assay
  CC50 at 72 h: 45.8 ± 4.6 µM
[1]; [3]
  EC50: 4.53 ± 2.5 µM
[2]; [4]
  Papp at 2 h, 200 µM: 3.12 ×10⁻⁶ cm/s
[2]; [5]
  Papp at 2 h, 200 µM: > 1 ×10⁻⁶ cm/s
Solubility limit assay; [6]
  solubility: > 200 µM
Solubility limit assay; [7]
  solubility: > 100 µM

## CC(=Nc1ccc(F)cc1F)c1c(C)cc(=O)n(O)c1O [Compound 26, 5-(1-((2,4-difluorophenyl)imino)ethyl)-1,6-dihydroxy-4-methylpyridin-2(1H)-one]
MTS cytotoxicity assay
  CC50 at 72 h: 54.1 ± 27.7 µM
[1]; [3]
  EC50: 2.83 ± 1.1 µM
[2]; [4]
  Papp at 2 h, 200 µM: 3.81 ×10⁻⁶ cm/s
[2]; [5]
  Papp at 2 h, 200 µM: > 1 ×10⁻⁶ cm/s
Solubility limit assay; [6]
  solubility: > 200 µM
Solubility limit assay; [7]
  solubility: > 100 µM

## CC(=Nc1cc(F)ccc1F)c1c(C)cc(=O)n(O)c1O [Compound 27, 5-(1-((2,5-difluorophenyl)imino)ethyl)-1,6-dihydroxy-4-methylpyridin-2(1H)-one]
MTS cytotoxicity assay
  CC50 at 72 h: 58.4 ± 21.9 µM
[1]; [3]
  EC50: 1.97 ± 0.6 µM
[2]; [4]
  Papp at 2 h, 200 µM: 2.4 ×10⁻⁶ cm/s
[2]; [5]
  Papp at 2 h, 200 µM: > 1 ×10⁻⁶ cm/s
Solubility limit assay; [6]
  solubility: > 200 µM
Solubility limit assay; [7]
  solubility: > 100 µM

## CC(=Nc1c(F)cccc1F)c1c(C)cc(=O)n(O)c1O [Compound 28, 5-(1-((2,6-difluorophenyl)imino)ethyl)-1,6-dihydroxy-4-methylpyridin-2(1H)-one]
MTS cytotoxicity assay
  CC50 at 72 h: 52.6 ± 20.5 µM
[1]; [3]
  EC50: 2.73 ± 1 µM
[2]; [4]
  Papp at 2 h, 200 µM: 2.48 ×10⁻⁶ cm/s
[2]; [5]
  Papp at 2 h, 200 µM: > 1 ×10⁻⁶ cm/s
Solubility limit assay; [6]
  solubility: > 200 µM
Solubility limit assay; [7]
  solubility: > 100 µM

## CC(=Nc1ccc(F)c(Cl)c1)c1c(C)cc(=O)n(O)c1O [Compound 29, 5-(1-((3-chloro-4-fluorophenyl)imino)ethyl)-1,6-dihydroxy-4-methylpyridin-2(1H)-one]
MTS cytotoxicity assay
  CC50 at 72 h: 70.8 ± 18.4 µM
[1]; [3]
  EC50: 3.25 ± 1 µM
[2]; [4]
  Papp at 2 h, 200 µM: 3.65 ×10⁻⁶ cm/s
[2]; [5]
  Papp at 2 h, 200 µM: > 1 ×10⁻⁶ cm/s
Solubility limit assay; [6]
  solubility: > 200 µM
Solubility limit assay; [7]
  solubility: > 100 µM

## CC(=NOCc1ccc(Cl)c(Cl)c1)c1c(C)cc(=O)n(O)c1O [Compound 30, 5-(1-(((3,4-dichlorobenzyl)oxy)imino)ethyl)-1,6-dihydroxy-4-methylpyridin-2(1H)-one]
MTS cytotoxicity assay
  CC50 at 72 h: 49.7 ± 16.4 µM
[1]; [8]
  EC50: 1.77 ± 0.7 µM
[1]; [3]
  EC50: 1.77 ± 0.7 µM
[2]; [4]
  Papp at 2 h, 200 µM: 1.59 ×10⁻⁶ cm/s
[2]; [5]
  Papp at 2 h, 200 µM: > 1 ×10⁻⁶ cm/s
Solubility limit assay; [6]
  solubility: > 200 µM
Solubility limit assay; [7]
  solubility: > 100 µM

## CC(=NOCc1ccc(Cl)cc1Cl)c1c(C)cc(=O)n(O)c1O [Compound 31, 5-(1-(((2,4-dichlorobenzyl)oxy)imino)ethyl)-1,6-dihydroxy-4-methylpyridin-2(1H)-one]
MTS cytotoxicity assay
  CC50 at 72 h: 34.4 ± 14.1 µM
[1]; [8]
  EC50: 0.53 ± 0.3 µM
[1]; [3]
  EC50: 0.5 µM
[2]; [4]
  Papp at 2 h, 200 µM: 4 ×10⁻⁶ cm/s
[2]; [5]
  Papp at 2 h, 200 µM: > 1 ×10⁻⁶ cm/s
Solubility limit assay; [6]
  solubility: > 200 µM
Solubility limit assay; [7]
  solubility: > 100 µM

## CC(=NOCc1ccccc1I)c1c(C)cc(=O)n(O)c1O [Compound 32, 1,6-dihydroxy-5-(1-(((2-iodobenzyl)oxy)imino)ethyl)-4-methylpyridin-2(1H)-one]
MTS cytotoxicity assay
  CC50 at 72 h: 54.1 ± 13.7 µM
[1]; [8]
  EC50: 1.77 ± 0.5 µM
[1]; [3]
  EC50: 1.77 ± 0.5 µM
[2]; [4]
  Papp at 2 h, 200 µM: 3.29 ×10⁻⁶ cm/s
[2]; [5]
  Papp at 2 h, 200 µM: > 1 ×10⁻⁶ cm/s
Solubility limit assay; [6]
  solubility: 100 µM (≈ 41.4 µg/mL)
Solubility limit assay; [7]
  solubility: > 100 µM

## CC(=NCc1ccccc1Br)c1c(C)cc(=O)n(O)c1O [Compound 33, 5-(1-((2-bromobenzyl)imino)ethyl)-1,6-dihydroxy-4-methylpyridin-2(1H)-one]
MTS cytotoxicity assay
  CC50 at 72 h: 51.3 ± 20.9 µM
[1]; [3]
  EC50: 8.45 ± 3.5 µM
[2]; [4]
  Papp at 2 h, 200 µM: 1.22 ×10⁻⁶ cm/s
[2]; [5]
  Papp at 2 h, 200 µM: > 1 ×10⁻⁶ cm/s
Solubility limit assay; [6]
  solubility: > 200 µM
Solubility limit assay; [7]
  solubility: > 100 µM

## CC(=NCc1cccc(Br)c1)c1c(C)cc(=O)n(O)c1O [Compound 34, 5-(1-((3-bromobenzyl)imino)ethyl)-1,6-dihydroxy-4-methylpyridin-2(1H)-one]
MTS cytotoxicity assay
  CC50 at 72 h: 22.6 ± 16.7 µM
[1]; [3]
  EC50: 13.6 ± 2.8 µM
[2]; [4]
  Papp at 2 h, 200 µM: 1.11 ×10⁻⁶ cm/s
[2]; [5]
  Papp at 2 h, 200 µM: > 1 ×10⁻⁶ cm/s
Solubility limit assay; [6]
  solubility: > 200 µM
Solubility limit assay; [7]
  solubility: > 100 µM

## CC(=NCc1ccc(Br)cc1)c1c(C)cc(=O)n(O)c1O [Compound 35, 5-(1-((4-bromobenzyl)imino)ethyl)-1,6-dihydroxy-4-methylpyridin-2(1H)-one]
MTS cytotoxicity assay
  CC50 at 72 h: 44.4 ± 34.4 µM
[1]; [3]
  EC50: 15 ± 10.7 µM
[2]; [4]
  Papp at 2 h, 200 µM: 3.15 ×10⁻⁶ cm/s
[2]; [5]
  Papp at 2 h, 200 µM: > 1 ×10⁻⁶ cm/s
Solubility limit assay; [6]
  solubility: > 200 µM
Solubility limit assay; [7]
  solubility: > 100 µM

## CC(=NOCc1ccccc1Cl)C1C(=O)NC(=O)NC1=O [Compound 45, 5-(1-(((2-chlorobenzyl)oxy)imino)ethyl)pyrimidine-2,4,6(1H,3H,5H)-trione]
MTS cytotoxicity assay
  CC50 at 72 h: 100 µM
[1]; HepDES19 cells
  anti-HBV activity (in words): inactive; also recorded: lack of inhibition; also recorded: lack of activity
[1]; [3]
  EC50: 100 µM
